Read-outs that look alike come from different tables or passages of the source.
What was measured:
B. bovis = test: Growth inhibitory fluorescence assay in vitro, B. bovis; type: cell-based, Babesia bovis; conditions: for IC50: Babesia bovis, in Bos taurus, B. bovis in vitro culture, fluorescence assay, 96 h; for Selective index HFF: EC50 HFF / IC50 B. bovis; for Selective index MDBK: EC50 MDBK / IC50 B. bovis
Experimental: (§1) Texas strain of B. bovis and Argentina strain of B. bigemina were grown using bovine red blood cells (RBCs, collected from cattle farm of Obihiro University of Agriculture and Veterinary Medicine and stored at 4°C) in medium 199 (M199; Sigma-Aldrich, Tokyo, Japan) supplemented with 40% bovine serum, while RPMI 1640 medium (Sigma-Aldrich, Tokyo, Japan) was used for B. divergens (German strain) cultivation. The United States Department of Agriculture (USDA) strain of T. equi was grown in equine RBCs (collected from horse farm of Obihiro University of Agriculture and Veterinary Medicine and stored at 4°C) in M199 supplemented with 40% equine serum, and hypoxanthine (MP Biomedicals, Santa Ana, CA, USA) at a final concentration of 13.6 μg/ml was used as a vital supplement, while GIT medium was used for B. caballi (USDA strain) cultivation. Sixty μg/ml of streptomycin, 0.15 μg/ml of amphotericin B, and 60 U/ml of penicillin G (Sigma-Aldrich, Tokyo, Japan) were added to all media to prevent fungal and bacterial contamination. All parasite cultures were maintained for a long time in a microaerophilic stationary-phase culture system.
(§2) The inhibition assay was conducted according to the previously described protocol. Briefly, different concentrations of CRY, DA, CF, and AQ were added in triplicate in 96-well plates with 1% parasitemia and 2.5% HCT for B. bovis and B. bigemina and 5% HCT for B. divergens, B. caballi, and T. equi. The plates were incubated in a humidified incubator with 5% CO2, 5% O2, and 90% N2 for 96 h without changing the media. After 96 h, 100 μl of lysis buffer containing 2 × SG1 was directly added to each well and the plates were then wrapped in aluminum foil for protection from direct light and incubated for 6 h at room temperature. Afterward, the fluorescence was measured using a fluorescence spectrophotometer (Fluoroskan Ascent, Thermo Fisher Scientific, USA) at 485 nm excitation and 518 nm emission wavelengths. The relative fluorescence value was set to percentages after subtracting the mean values of the negative control. The experiment was repeated thrice.
(§3) The IC50 values of CRY, DA, CF, and AQ were determined using the nonlinear regression curve fit in GraphPad Prism (GraphPad Software Inc., San Diego, CA, USA). Combination index (CI) values for the drug combination were calculated using CompuSyn software, and the degree of synergism was determined as the weighted average of CI values using a formula [(1 x IC50) + (2 x IC75) + (3 x IC90) + (4 x IC95)]/10 [30]. The differences in parasitemia and hematology profiles in the B. microti–infected mice were analyzed using an independent Student’s t-test and one-way ANOVA test using GraphPad Prism version 5.0 for Windows (GraphPad Software Inc., San Diego, CA, USA). A P-value < 0.05 was considered statistically significant.

B. bigemina = test: Growth inhibitory fluorescence assay in vitro, B. bigemina; type: cell-based, Babesia bigemina; conditions: for Selective index HFF: EC50 HFF / IC50 B. bigemina; for Selective index MDBK: EC50 MDBK / IC50 B. bigemina; for Selective index NIH/3T3: EC50 NIH/3T3 / IC50 B. bigemina
Experimental: as §1, §2, §3

B. divergens = test: Growth inhibitory fluorescence assay in vitro, B. divergens; type: cell-based, Babesia divergens; conditions: for IC50: Babesia divergens; for Selective index HFF: EC50 HFF / IC50 B. divergens; for Selective index MDBK: EC50 MDBK / IC50 B. divergens; for Selective index NIH/3T3: EC50 NIH/3T3 / IC50 B. divergens
Experimental: as §1, §2, §3

B. caballi = test: Growth inhibitory fluorescence assay in vitro, B. caballi; type: cell-based, Babesia caballi; conditions: for Selective index HFF: EC50 HFF / IC50 B. caballi; for Selective index MDBK: EC50 MDBK / IC50 B. caballi; for Selective index NIH/3T3: EC50 NIH/3T3 / IC50 B. caballi
Experimental: as §1, §2, §3

T. equi = test: Growth inhibitory fluorescence assay in vitro, T. equi; type: cell-based, Theileria equi; conditions: for Selective index HFF: EC50 HFF / IC50 T. equi; for Selective index MDBK: EC50 MDBK / IC50 T. equi; for Selective index NIH/3T3: EC50 NIH/3T3 / IC50 T. equi; for IC50: Theileria equi, T. equi in vitro culture, fluorescence assay, 96 h
Experimental: as §1, §2, §3

B. microti = test: Chemotherapeutic effect against B. microti in mice (parasitemia); type: in vivo, Babesia microti; conditions: for day p.i. on which parasitemia was undetectable by microscopy / peak parasitemia level: BALB/c mice; for peak parasitemia level: 5 days, day 10
Experimental: Rodent B. microti (Munich strain) was recovered from -80°C stock and injected intraperitoneally (i.p.) in two 8-week-old female BALB/c mice purchased from CLEA Japan (Clea Japan, Tokyo, Japan). The mice were euthanized using an anesthesia system containing isoflurane after parasitemia reached approximately 30% and the blood was collected by cardiac puncture to conduct the in vivo studies.
(§4) The promising effect of CRY in vitro encouraged us to evaluate its in vivo effects against B. microti in mice. The assay was conducted in accordance with the previously described protocol. In two separate trials, 35 female 8-week-old BALB/c mice, housed under a pathogen-free environment with controlled humidity, temperature (22°C) and a 12 h light/ dark cycle were caged in seven groups, each group consisting of five mice. Six groups were i.p. injected with 0.5 ml of inoculum (1×10^7 B. microti iRBCs), while the seventh group was left uninfected and untreated to act as a negative control. When the average parasitemia in all infected mice reached approximately 1%, the 5-day drug treatment was initiated. The first and second groups were i.p. injected with 25 mg/kg body weight (BW) of DA and 5 mg/kg BW of CRY, respectively. The third group received 20 mg/kg BW of AQ orally, while the fourth and fifth groups were administered a combination of 2.5 mg/kg BW CRY + 12.5 mg/kg BW DA and 2.5 mg/kg BW CRY + 10 mg/kg AQ via a route similar to that of the single-drug treatment, respectively. The sixth group received 5% DMSO in physiological saline i.p. as a positive control. Parasitemia and hematology profiles (RBCs, hemoglobin (HGB), and HCT) were monitored every 2 and 4 days by microscopic examination and hematology analyzer (Celltac α MEK-6450, Nihon Kohden Corporation, Tokyo, Japan), respectively. On day 49, all mice were euthanized using an anesthesia system containing isoflurane and the blood was collected by cardiac puncture for PCR detection of the parasites.

[1] = test system: B. microti small-subunit rRNA (ss-rRNA) gene; test: Nested PCR detection of B. microti DNA in blood of treated mice; type: in vivo, Babesia microti
Experimental: as §4
The nested PCR (nPCR) that targeted the B. microti small-subunit rRNA (ss-rRNA) gene was performed in accordance with the previously described protocol and the genomic DNA was extracted from blood samples collected from all mice groups on day 49 post-infection (p.i.) using a QIAamp DNA Blood Mini Kit (Qiagen, Tokyo, Japan). PCR cycling conditions were performed as previously described and the bands with an expected size of 154 bp were considered positive.

[2] = B. divergens in vitro culture, fluorescence assay, 96 h, read-out: IC50

Row | Structure (SMILES) | IC50 (B. bovis) | Selective index HFF (B. bovis) | Selective index MDBK (B. bovis) | Selective index HFF (B. bigemina) | Selective index MDBK (B. bigemina) | Selective index NIH/3T3 (B. bigemina) | IC50 (B. divergens; [2]) | Selective index HFF (B. divergens) | Selective index MDBK (B. divergens) | Selective index NIH/3T3 (B. divergens) | Selective index HFF (B. caballi) | Selective index MDBK (B. caballi) | Selective index NIH/3T3 (B. caballi) | Selective index HFF (T. equi) | Selective index MDBK (T. equi) | Selective index NIH/3T3 (T. equi) | IC50 (T. equi) | also measured
1 | Cn1c2c3ccccc3nc-2cc2ccccc21 [CRY, Cryptolepine hydrate] | 1740 ± 0.37 nM | ˃ 57.5 | 49.81 | ˃ 71.4 | 61.91 | 68.07 | 790 ± 0.32 nM | ˃ 126.9 | 109.71 | 120.62 | ˃ 166.7 | 144.45 | 158.82 | ˃ 136.9 | 118.73 | 130.54 | 730 ± 0.025 nM | concentration at which in vitro growth was significantly inhibited (B. bovis; B. bovis, t-test P = 0.005): 0.15 µM; concentration at which in vitro growth was significantly inhibited (B. bigemina; B. bigemina, t-test P = 0.005): 0.15 µM; IC50 (B. bigemina; Babesia bigemina, B. bigemina in vitro culture, fluorescence assay, 96 h): 1400 ± 0.6 nM; concentration at which in vitro growth was significantly inhibited (B. divergens; B. divergens, t-test P = 0.003): 0.078 µM; IC50 (B. divergens; B. divergens, fluorescence assay after 96 h, three trials, read-out: IC50 (Fig 1)): 788 ± 320 nM; concentration at which in vitro growth was significantly inhibited (B. caballi; B. caballi, t-test P = 0.001): 0.03 µM; IC50 (B. caballi; Babesia caballi, B. caballi in vitro culture, fluorescence assay, 96 h): 600 ± 0.53 nM; concentration at which in vitro growth was significantly inhibited (T. equi; T. equi, t-test P = 0.02): 0.078 µM; day p.i. on which parasitemia was undetectable by microscopy (B. microti; 5 mg/kg CRY i.p.): 28 days; peak parasitemia level (B. microti; 5 mg/kg CRY i.p., DMSO control 62.6% on day 8): 12.9%; growth of B. microti in mice (B. microti; CRY 5 mg/kg): effectively inhibited; parasite DNA in blood (nPCR) ([1]; day 49, 5 mg/kg CRY): still detected
2 | O=C1C(O)=C([C@H]2CC[C@H](c3ccc(Cl)cc3)CC2)C(=O)c2ccccc21 [AQ, atovaquone] | 39 ± 0.002 nM | ˃ 2564.1 | ˃ 2564.1 | ˃ 142.7 | ˃ 142.7 | ˃ 142.7 | 38 ± 0.002 nM | ˃ 2631.6 | ˃ 2631.6 | ˃ 2631.6 | ˃ 980.4 | ˃ 980.4 | ˃ 980.4 | ˃ 1052.6 | ˃ 1052.6 | ˃ 1052.6 | 95 ± 0.065 nM | Selective index NIH/3T3 (B. bovis; EC50 NIH/3T3 / IC50 B. bovis): ˃ 2564.1; day p.i. on which parasitemia was undetectable by microscopy (B. microti; 20 mg/kg AQ oral): 18 days; peak parasitemia level (B. microti; 20 mg/kg AQ oral): 9%; parasite DNA in blood (nPCR) ([1]; day 49, 20 mg/kg AQ): not detected

From article PMC7451656, “In vitro and in vivo growth inhibitory activities of cryptolepine hydrate against several Babesia species and Theileria equi” (PLoS Neglected Tropical Diseases, 2020)
